Data on eight molecules can be found in PMC8894927, “Oxylipin signaling in salt-stressed soybean is modulated by ligand-dependent interaction of Class II acyl-CoA-binding proteins with lipoxygenase” (The Plant Cell, 2021).

Where “and” joins values, the source holds several entries; their conditions need not be identical. Equal entries are not always repeated. Where only a bound is given, the exact number is not on record here.

Assay [1] has as its system (His)6-GmACBP4.1_33–354. As to the kind of experiment: Protein–lipid overlay assay. The assay is classed as binding, soybean. As to conditions: commercial strips and PA-spotted nitrocellulose strips; 0.5 μg mL−1 protein.
Assay [2] relates to (His)6-GmACBP4.1_33–354. Put plainly: Liposome association assay for PA binding. As to conditions: PA:di-16:0-PC liposomes, 0–100% (w/w) PA. Also noted: species or system soybean.
In assay [3] the target is (His)6-GmACBP4.1_33–354. Put plainly: Isothermal titration calorimetry of acyl-CoA binding (WT protein). Also noted: species or system soybean. The note with it: ITC at 25°C; 15 μM protein titrated with 200 μM acyl-CoA; mean ± SD, three experiments; read-out: KD, dissociation constant. On the procedure: ITC was conducted with a MicroCal iTC200 system (GE Healthcare) at 25°C in 10 mM sodium phosphate (pH 7) by 20 injections of 1.8-μL acyl-CoAs (200 μM; Avanti Polar Lipids Inc., Alabaster, AL, USA) into the sample cell with 15 μM purified (His)6-GmACBP4.1. Each injection lasted 4 s at 150-s intervals with a stirring speed of 1,000 rpm. Nonspecific heat effects were estimated and corrected after saturation. The baseline was adjusted, and the data were fitted into a single-site binding model using the Origin version 7.0 software (OriginLab).
Supplemental Table 1. Binding constants and thermodynamic parameters for (His)6-GmACBP4.133–354 interaction with acyl-CoAs. (Supports Figure 5A) […]
Isothermal titration calorimetry analysis was performed by titration of 250 μL of 15 μM (His)6-GmACBP4.133–354 with […]
from three independent experiments. n, stoichiometry (number of ligand sites per protein); KD, dissociation constant; ∆H, enthalpy change; −T∆S, entropy change; ∆G, Gibbs free energy.

Assay [4] relates to GmACBP4.1_33–354 interaction with VLXB:StrepII. Put plainly: Strep-Tactin pull-down assay with supplemented acyl-CoAs. Type of assay: binding, soybean.
Assay [5] has as its system GmACBP4.1_33–354 interaction with GmPLDα1:StrepII. Described as above. Type of assay: binding, soybean. As to conditions: acyl-CoA 12.5–100 μM, versus control without acyl-CoA. An excerpt:
Figure 6 Specific acyl-CoA species facilitate GmACBP4 interaction with VLXB and GmPLDα1. A, Strep-Tactin pull-down assays. […] (His)6-GmACBP4.1_33–354 were detected in eluates by immunoblotting using anti-ACBP3 antibodies. […] Input lanes represent 1% protein. Arrowheads indicate target bands of 40-kD (His)6-GmACBP4.1_33–354 (apparent: 50 kD). The bound protein fraction was quantified densitometrically. […] B–C, Strep-Tactin pull-down assays with supplemented acyl-CoAs. […] Input lanes represent 5% proteins in (B) or 10% proteins in (C). Arrowheads indicate target bands of 40-kD (His)6-GmACBP4.1_33–354 (apparent: 50kD).
Strep-Tactin pull-down assays were performed using Strep-Tactin XT resins (IBA) following the manufacturer’s instructions. Briefly, 5 μL of resins with/without prebound VLXB:StrepII or GmPLDα1:StrepII (0.5 μM) were agitated with GmACBP4.1_33–354 (0.5 μM) and acyl-CoAs (0, 12.5, 25, 50, and 100 μM) in Buffer W containing 0.1 M Tris–HCl (pH 7), 0.15 M NaCl, 1 mM EDTA and 0.05% (w/v) Triton X-100 at 4°C for 2 h. After three washes in Buffer W, bound proteins were eluted in Buffer W with 50 mM biotin, and analyzed by immunoblotting using anti-ACBP3.1 antibodies.

For assay [6], the target named is AtACBP1. Also noted: method as in Xue et al., 2014. As to conditions: ref Xue et al., 2014; cited from earlier work.
The target in assay [7] is T1, VLXB:StrepII (soybean, UniProt A0A0R0G554 1-853).
T1 sequence (looked up): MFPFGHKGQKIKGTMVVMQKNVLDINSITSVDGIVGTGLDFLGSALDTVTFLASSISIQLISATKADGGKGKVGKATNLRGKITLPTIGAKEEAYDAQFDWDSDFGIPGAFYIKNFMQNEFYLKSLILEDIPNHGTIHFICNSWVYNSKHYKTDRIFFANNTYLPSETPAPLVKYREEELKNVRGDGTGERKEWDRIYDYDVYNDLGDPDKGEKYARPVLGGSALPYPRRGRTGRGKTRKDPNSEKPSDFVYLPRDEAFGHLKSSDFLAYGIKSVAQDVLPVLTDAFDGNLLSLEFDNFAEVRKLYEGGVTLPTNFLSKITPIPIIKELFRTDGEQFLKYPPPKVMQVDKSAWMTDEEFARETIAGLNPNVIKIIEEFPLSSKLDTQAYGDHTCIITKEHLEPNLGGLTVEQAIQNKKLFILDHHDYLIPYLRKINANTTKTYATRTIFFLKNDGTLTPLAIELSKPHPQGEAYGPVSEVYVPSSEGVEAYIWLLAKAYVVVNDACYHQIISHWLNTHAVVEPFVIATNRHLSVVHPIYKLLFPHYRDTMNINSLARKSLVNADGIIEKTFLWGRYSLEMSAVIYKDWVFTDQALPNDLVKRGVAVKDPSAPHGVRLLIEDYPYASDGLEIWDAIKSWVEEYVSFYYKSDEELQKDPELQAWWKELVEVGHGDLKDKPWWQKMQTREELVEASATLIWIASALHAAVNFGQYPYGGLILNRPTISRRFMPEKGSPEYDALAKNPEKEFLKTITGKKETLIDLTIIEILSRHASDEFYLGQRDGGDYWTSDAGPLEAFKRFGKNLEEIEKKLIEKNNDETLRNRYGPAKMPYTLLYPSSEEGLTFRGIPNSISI
Put plainly: cell-based or functional assay.

Assay [8] concerns the target T1, VLXB:StrepII. Put plainly: pull-down; Strep-Tactin XT resins with prebound VLXB:StrepII or GmPLDα1:StrepII (0.5 μM) agitated with (His)6-GmACBP4.1(33-354) (0.5 μM) and acyl-CoAs (0, 12.5, 25, 50, 100 μM) in 0.1 M Tris-HCl pH 7, 0.15 M NaCl, 1 mM EDTA, 0.05% Triton X-100 at 4°C for 2 h; eluted with 50 mM biotin; immunoblot with anti-ACBP3.1 antibodies. The note with it: both partners purified. (A western blot detects proteins with antibodies after separation by electrophoresis.)

For assay [9], the target named is T2, GmPLDα1:StrepII (soybean, UniProt I1KH24 1-809).
T2 construct: GmPLDα1, soybean phospholipase Dα1 (Glyma.07G031100), ORF; In pRSETA (pGM1032); the methods call these proteins (His)6/StrepII-tagged; also called soybean PHOSPHOLIPASE Dα1; source: E. coli, purified (HisTrap HP, Strep-Tactin XT); not shown: StrepII, C-terminal, kept
T2 sequence (looked up): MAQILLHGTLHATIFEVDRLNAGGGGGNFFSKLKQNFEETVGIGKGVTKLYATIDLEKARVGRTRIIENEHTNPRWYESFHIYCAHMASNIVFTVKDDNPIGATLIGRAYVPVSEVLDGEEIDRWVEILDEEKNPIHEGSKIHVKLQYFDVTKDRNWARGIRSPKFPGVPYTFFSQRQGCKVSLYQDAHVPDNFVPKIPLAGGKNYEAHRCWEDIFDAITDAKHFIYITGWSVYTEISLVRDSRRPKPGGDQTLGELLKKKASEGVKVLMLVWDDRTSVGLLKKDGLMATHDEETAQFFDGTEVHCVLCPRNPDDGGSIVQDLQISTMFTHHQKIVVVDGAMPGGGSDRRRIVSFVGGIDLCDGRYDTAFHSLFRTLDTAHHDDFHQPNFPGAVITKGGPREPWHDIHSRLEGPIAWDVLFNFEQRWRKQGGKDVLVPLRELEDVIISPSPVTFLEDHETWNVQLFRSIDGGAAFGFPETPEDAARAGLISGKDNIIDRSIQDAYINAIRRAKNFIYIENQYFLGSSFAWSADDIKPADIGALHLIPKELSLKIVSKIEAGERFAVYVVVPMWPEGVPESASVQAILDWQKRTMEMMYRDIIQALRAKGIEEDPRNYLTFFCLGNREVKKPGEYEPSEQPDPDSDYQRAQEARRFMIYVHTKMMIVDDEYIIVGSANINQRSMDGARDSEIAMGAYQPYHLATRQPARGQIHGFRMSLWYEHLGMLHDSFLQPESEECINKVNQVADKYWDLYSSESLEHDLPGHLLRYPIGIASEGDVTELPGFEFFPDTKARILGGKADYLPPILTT
The description is as above. The note with it: both partners purified.

Setting [10] is: acyl-CoA 12.5–100 μM, versus control without acyl-CoA.

For `CCCCCCCCCCCCCC(=O)OC[C@H](COP(=O)(O)O)OC(=O)CCCCCCCCCCCCC` [di-14:0-PA], the “binding on lipid filter strips” value in [1] is reported as “lower affinity”. Further, in assay [2], the “descending order of affinity to the WT (liposome association)” value (“descending order of affinity to the WT” below) is given as “di-16:0-PA ≈ di-18:1-PA > di-18:0-PA > di-14:0-PA”.
Turning to `CCCCCCCCCCCCCCCCCC(=O)OC[C@H](COP(=O)(O)O)OC(=O)CCCCCCCCCCCCCCCCC` [di-18:0-PA], the “binding on lipid filter strips” value in [1] is “lower affinity”. Besides, the “descending order of affinity to the WT” value in assay [2] is “di-16:0-PA ≈ di-18:1-PA > di-18:0-PA > di-14:0-PA”.
As usually defined, the Kd is the equilibrium constant for the complex coming apart. `CCCCCCCCCCCCCCCC(=O)SCCNC(=O)CCNC(=O)[C@H](O)C(C)(C)COP(=O)(O)OP(=O)(O)OC[C@H]1O[C@@H](n2cnc3c(N)ncnc32)[C@H](O)[C@@H]1OP(=O)(O)O` [C16:0-CoA]: the dissociation constant (Kd) in [3] was determined as 800 ± 100 nM. Also, in assay [4] (setting [10]), the “increase in WT binding with VLXB:StrepII” value is “negligible”. Besides, in assay [5], the “increase in WT binding with GmPLDα1:StrepII” value was “up to nine-fold”.
With `CCCCCCCCC=CCCCCCCCC(=O)OCC(COP(=O)(O)O)OC(=O)CCCCCCCC=CCCCCCCCC` (stereo not drawn) [di-18:1-PA], the “descending order of affinity to the WT” value in [2] is “di-16:0-PA ≈ di-18:1-PA > di-18:0-PA > di-14:0-PA”.
As for `CCCCCCCC/C=C\CCCCCCCC(=O)SCCNC(=O)CCNC(=O)[C@H](O)C(C)(C)COP(=O)(O)OP(=O)(O)OC[C@H]1O[C@@H](n2cnc3c(N)ncnc32)[C@H](O)[C@@H]1OP(=O)(O)O` [C18:1-CoA], the Kd in assay [3] worked out at 680 ± 80 nM. Moreover, in assay [4] (setting [10]), the “increase in WT binding with VLXB:StrepII” value is “negligible”. Moreover, the “increase in WT binding with GmPLDα1:StrepII” value in assay [5] was “up to nine-fold”.
Consider `CC/C=C\C/C=C\C/C=C\CCCCCCCC(=O)SCCNC(=O)CCNC(=O)[C@H](O)C(C)(C)COP(=O)(O)OP(=O)(O)OC[C@H]1O[C@@H](n2cnc3c(N)ncnc32)[C@H](O)[C@@H]1OP(=O)(O)O` [C18:3-CoA, linolenoyl-CoA], for which the Kd is 1170 nM and 900 to 1200 nM in assay [3]; 400 to 800 nM in assay [6]. Further, the “increase in WT binding with VLXB:StrepII” value in assay [4] (100 µM acyl-CoA) is on record as “nine-fold”. Further, the “increase in WT binding with GmPLDα1:StrepII” value in assay [5] is recorded as “did not influence”.
As for `CCCCCCCCCCCCCCCC(=O)OC[C@H](COP(=O)([O-])OCC[N+](C)(C)C)OC(=O)CCCCCCCCCCCCCCC` [di-16:0-phosphatidylcholine], the “binding on lipid filter strips” value in assay [1] is on record as “did not interact”.

B1: (His)6-GmACBP4.1_(33–354) (domain or fragment, UniProt I1KAV2 33-354, looked up)
chain: DDNLTVTRASAAETTATRAEQFEDALKRDDAVSSDARPFEEESVVAEHGSVRIDSDGDYDDDWEGVESTELDEAFSAATAFVAAAAADRLSQKVSSDVQLQLYGLYKIATEGPCSTPQPSPLKMTARAKWQAWQKLGAMPPEDAMQKYIDIVTEIYPTWLDGSSLRNKSGDSGGHGSEAKGPMGPVFSTFVYEEEYGSDSQMEAIHGFAREGDMANLLKCIENGVSMNLKDSEGRTPLHWAVDRGHLNVTELLVGKNADVNAKDNDGQTPLHYAVTCEREAIAEYLVKHNADIYSKDNDGSSPRDICESNWPCMQHVGEEVN
notes: In pRSETA (pGM963); also called WT; recombinant GmACBP4.1 without the TM domain; source: E. coli, purified (HisTrap HP, HiTrap Q HP); not shown: (His)6, N-terminal, kept
As to B1, in assay [7], the “IC50 of in vitro LOX activity of 100 nM VLXB:StrepII after incubation with 0.1-300 nM (His)6-GmACBP4.1(33-354) WT and 10 µM C18:2-CoA” value amounted to 8.5 nM; the “IC50 of in vitro LOX activity of 100 nM VLXB:StrepII after incubation with 0.1-300 nM (His)6-GmACBP4.1(33-354) WT and 10 µM C18:3-CoA” value was 5 nM. Moreover, in assay [8], the “fold increase of binding with 100 µM C18:3-CoA against no acyl-CoA” value was 9 fold and the “fold increase of binding with C18:2-CoA against no acyl-CoA” value is no more than 4 fold. Moreover, the “fold increase of binding with C16:0/C18:1-CoAs against no acyl-CoA” value in assay [9] is no more than 9 fold.
